The record followed here is PubChem BioAssay (NCI).

Holding throughout (assay): NCI-60 cell line screen, 48 h
For test [1], the system named is SK-MEL-2 melanoma.
Test [2] deals with SNB-19 CNS.
Test [3] deals with SF-268 CNS.
The subject of test [4] is U251 CNS.
In test [5] the test system is UACC-62 melanoma.
In test [6] the test system is NCI-H522 lung.
The test system of test [7] is MALME-3M melanoma.
Test [8] concerns M14 melanoma.

SMILES strings stand for the structures.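 Where inhibition never reached the appropriate level, the endpoint shown equals the highest concentration tested. Otherwise, values were interpolated linearly from a five-concentration, 48-hour dose response in 96-well plates. TGI: total growth inhibition.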

Turning to `CCCCCCCC(=O)OCC1OC(n2cc(F)c(=O)[nH]c2=O)C(N)C(OC(=O)CCCCCCC)C1O` (configuration not stated), the TGI worked out at 38.5 µM in test [1]; 32 µM in test [2]; 35.4 µM in test [3]; 33.6 µM in test [4]; 32.4 µM in test [5]; 28.9 µM in test [6]. The TGI in test [7] amounted to 36.9 µM; in test [8], 32.2 µM.

With `COc1cc(OC)c(OC)cc1/C=N/NC(=O)N/N=C/c1cc(OC)c(OC)cc1OC`, the TGI in test [1] is above 100 µM; in test [2], above 100 µM; in test [3], above 100 µM; in test [4], above 100 µM; in test [5], above 100 µM; in test [6], 86.5 µM. For the same compound, the TGI in test [7] and in test [8] was above 100 µM in each case.

`O=C1C/C(Br)=C\c2ccccc2-c2ccccc21`: the TGI in test [1] was 12.2 µM; in test [2], 19.5 µM; in test [3], 8.39 µM; in test [4] it was 6.83 µM; in test [5], 5.09 µM; in test [6] it was 1.59 µM. Also, the figures for the TGI in test [7] and in test [8] were 4.94 µM and 5.27 µM, respectively.

`O/N=C1\CCCCC1C(NO)c1ccccc1` (configuration not stated): the TGI in test [1], in test [2], in test [3], in test [4], in test [5] and in test [6] was above 100 µM throughout. Further, the TGI in test [7] and in test [8] was above 100 µM in each case.

For the compound `CCC(C)(C)n1c(C)nc2c1C(=O)c1ccccc1C2=O`, the TGI in test [1] was 42.3 µM; in test [2], above 100 µM; in test [3], above 100 µM; in test [4], above 100 µM; in test [5] it was 36.1 µM; in test [6] it was 87.5 µM. The TGI in test [7] was 86.7 µM; in test [8], above 100 µM.

Turning to `CCOc1ccc(OCC(=O)O)c2c1CCCC2=O`, the TGI in test [1], in test [2], in test [3], in test [4], in test [5] and in test [6] was above 100 µM each time. Moreover, the TGI in test [7] and in test [8] was above 100 µM in each case.

Take `C[N+](C)(C)CC(=O)N/N=C(/Cc1cc(=O)oc2cc(O)ccc12)C(=O)Nc1ccc(Cl)cc1`: the TGI in test [1], in test [2], in test [3], in test [5], in test [6] and in test [7] was above 100 µM in each case. The compound also returned a TGI in test [8] above 100 µM.

As to `COc1ccc(NC(=O)CSc2nnc(-c3ccc(NC(C)=O)cc3)o2)cc1`, the TGI is 38 µM in test [1]; 34.8 µM in test [3]; 33.7 µM in test [4]; 35.2 µM in test [5]; 33.9 µM in test [6]; 40.8 µM in test [7]. The compound further displayed a TGI in test [8] of 33.8 µM.

As to `O=Cc1cc2c(cc1-c1cc3c(cc1C=O)OCO3)OCO2`, the TGI in test [1], in test [2], in test [3], in test [4], in test [5] and in test [6] was above 100 µM each time. Further, the TGI in test [7] and in test [8] was above 100 µM each time.

Regarding `CC(=O)N/C(=C\c1ccccc1/C=C(\NC(C)=O)c1nc2cc(C)c(C)cc2[nH]1)c1nc2cc(C)c(C)cc2[nH]1`, the TGI was 53.9 µM in test [1]; above 100 µM in test [2]; above 100 µM in test [3]; above 100 µM in test [4]; 31.9 µM in test [5]; 24 µM in test [6]. Also, the TGI was determined as 54.2 µM in test [7] and 23.9 µM in test [8].

For `O=C1C=C(c2c(O)ccc3ccccc23)c2cc(O)ccc2C1=O`, the TGI in test [1] was found to be 36.8 µM; in test [2], 31.3 µM; in test [3], 32.6 µM; in test [4] it was 28.4 µM; in test [5] it was 14.2 µM; in test [7], 34.2 µM. This compound also returned a TGI in test [8] of 29.9 µM.

In the case of `C/C(=N\NC(N)=O)c1sc(-c2nc(C)c(/C(C)=N/NC(N)=O)s2)nc1C`, the TGI in test [1], in test [2], in test [3], in test [4], in test [5] and in test [6] was above 100 µM in each case. In addition, the TGI in test [7] and in test [8] was above 100 µM in each case.

With `Cc1nc2c(N)ncnc2o1`, the TGI in test [1], in test [2], in test [3], in test [4], in test [5] and in test [6] was above 100 µM in each case. The TGI in test [7] and in test [8] was above 100 µM in each case.

For the compound `CCOc1ccc(NC(=O)CC2SC(=Nc3ccc(C)cc3C)NC2=O)cc1` (configuration not stated), the TGI in test [1], in test [2], in test [3], in test [4], in test [5] and in test [6] was above 100 µM in each case. Moreover, the TGI in test [7] and in test [8] was above 100 µM in each case.

For `CN(C)CCNC(=O)Cc1ccccc1Nc1c(Cl)cccc1Cl`, the TGI stood at 31.9 µM in test [2]; 36.2 µM in test [3]; 23.6 µM in test [4]; 33.3 µM in test [5]; 33.9 µM in test [8].

For the compound `c1ccc2c(c1)CCc1c(-c3ccncc3)n[nH]c1-2`, the TGI in test [1] is 38.4 µM; in test [2], above 100 µM; in test [3], above 100 µM; in test [4] it was 57.8 µM; in test [5] it was 34.7 µM; in test [7], above 100 µM. The TGI in test [8] is 47.9 µM.

With `COc1cc(C[P+](c2ccccc2)(c2ccccc2)c2ccccc2)cc(OC)c1OC`, the TGI in test [1], in test [2], in test [3], in test [4], in test [5] and in test [6] was above 100 µM throughout. In addition, the TGI in test [7] and in test [8] was above 100 µM in each case.

On to `O=C1C=C(Nc2ccc(Cl)cc2C(=O)c2ccccc2)c2ccccc2C1=O`, for which the TGI in test [1], in test [2], in test [3], in test [4], in test [5] and in test [6] was above 100 µM throughout. Also, the TGI in test [7] and in test [8] was above 100 µM in each case.

Consider `COC(=N)c1csc(C2OC(CO)C(O)C2O)n1` (configuration not stated), for which the TGI in test [1], in test [2], in test [3], in test [4], in test [5] and in test [6] was above 100 µM throughout. The TGI in test [7] and in test [8] was above 100 µM in each case.

On to `CCCN(CCC)c1c([N+](=O)[O-])cc(C(=O)N(CC)CC)cc1[N+](=O)[O-]`, for which the TGI in test [1] is 43.5 µM; in test [2], above 100 µM; in test [3], above 100 µM; in test [4], 32.7 µM; in test [5], 69.1 µM; in test [6] it was 28.6 µM. For the same compound, the TGI was 40.5 µM in test [7] and 79.5 µM in test [8].

Turning to `CCOC(=O)C(Br)=C1OC(=O)c2ccccc2-c2ccccc21` (mixture of isomers), the TGI in test [1] turned out to be 37.4 µM; in test [3] it was 88.3 µM; in test [4] it was 59.4 µM; in test [5], 29.5 µM; in test [6] it was 32 µM; in test [7], 37.6 µM. Also, in test [8], the TGI came out at 37.1 µM.

On to `FC(F)(F)c1ccc2nc(NCc3ccccc3)c(-c3ccccc3)nc2c1`, for which the TGI was above 100 µM in test [1]; above 100 µM in test [2]; above 100 µM in test [3]; 86.8 µM in test [4]; above 100 µM in test [5]; above 100 µM in test [7].

With `Oc1oc(C(=C2N=c3ccccc3=N2)c2ccc(Cl)cc2)c(O)c1-c1ccc(Cl)cc1`, the TGI is above 100 µM in test [2]; above 100 µM in test [3]; 22.9 µM in test [4]; 15.2 µM in test [5]; 6.18 µM in test [6]; 7.72 µM in test [7]. The same compound yielded a TGI in test [8] of 18 µM.

Regarding `CC1=C(C(=O)Nc2ccccc2)C(c2ccc(Cl)c(Cl)c2)C(C(=O)Nc2ccccc2)=C(C)N1`, the TGI in test [2] was found to be 32.6 µM; in test [3] it was 24.9 µM; in test [4], 27.6 µM; in test [5], 22.6 µM; in test [6], 25.8 µM; in test [7] it was 26.7 µM. Moreover, the TGI in test [8] worked out at 25.1 µM.

In the case of `CC(C)C1CN(C(=O)OCc2ccccc2)C2N1C(=O)C2(C)OCc1ccccc1` (configuration not stated), the TGI in test [1] was 73.5 µM; in test [2], above 100 µM; in test [3] it was above 100 µM; in test [4], above 100 µM; in test [5] it was above 100 µM; in test [7] it was above 100 µM. The TGI in test [8] is above 100 µM.
